Data taken from US11109593B2, “Isoxazolin-5-one derivative and herbicide containing same as active ingredient” (HOKKO CHEMICAL INDUSTRY CO., LTD., priority 2017, dated 2021).

How the values were obtained:
Format in all cases: in vivo
Scirpus juncoides [1] = assay: Test Example 2: herbicidal effect test by treatment during growing period in paddy rice cultivation (seven days after seeding); details: for Herbicidal rate (%) Scirpus juncoides: 120 g/10a active ingredient, assessed 14 days after treatment, dry weight vs untreated area; for herbicidal rate, Scirpus juncoides: 120 g/10a, rated 14 days after treatment, paddy soil pots
Outline: (§1)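 Greenhouse flooded-pot test, seeds sown in puddled paddy soil; emulsion applied into water 7 d after seeding, 120 g a.i./10 a. Dry-weight-based herbicidal rate at 14 d, n=2.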

[2] = tested on: broad leaf weeds (Lindernia pyxidaria and Monochoria vaginalis); assay: as above; details: for Herbicidal rate (%) Lindernia pyxidaria / Herbicidal rate (%) Monochoria vaginalis: 120 g/10a active ingredient, assessed 14 days after treatment, dry weight vs untreated area; for herbicidal rate, Lindernia pyxidaria / herbicidal rate, Monochoria vaginalis: 120 g/10a, rated 14 days after treatment, paddy soil pots
Outline: as §1

Echinochloa crus-galli [3] = assay: as above; details: for Herbicidal rate (%) Echinochloa crus-galli: 120 g/10a active ingredient, assessed 14 days after treatment, dry weight vs untreated area; for herbicidal rate, Echinochloa crus-galli: 120 g/10a, rated 14 days after treatment, paddy soil pots
Outline: as §1

Scirpus juncoides [4] = assay: Test Example 1: herbicidal effect test by treatment of rice paddy soil (immediately after seeding)
Outline: (§2)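 Paddy soil in pots with compound fertilizer, puddled; 30 seeds per species sown at 0–1 cm, flooded ~3 cm, greenhouse. Water-diluted emulsions dropped onto water immediately after seeding at 120 g active ingredient per 10 ares, duplicate. Herbicidal rate (%) from plant dry weight versus untreated, 14 days after treatment.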

[5] = tested on: broad leaf weeds (Lindernia pyxidaria and Monochoria vaginalis); assay: as above
Outline: as §2

Echinochloa crus-galli [6] = assay: as above
Outline: as §2

[7] = 120 g/10a active ingredient, dry weight vs untreated area, 14 days after treatment
[8] = Lindernia pyxidaria, 120 g/10a active ingredient, dry weight vs untreated area, 14 days after treatment
[9] = Monochoria vaginalis, 120 g/10a active ingredient, dry weight vs untreated area, 14 days after treatment
[10] = 120 g/10a active ingredient, 14 days after treatment, dry weight vs untreated area
[11] = Lindernia pyxidaria, 120 g/10a active ingredient, 14 days after treatment, dry weight vs untreated area
[12] = Monochoria vaginalis, 120 g/10a active ingredient, 14 days after treatment, dry weight vs untreated area

SMILES	Herbicidal rate (%) Scirpus juncoides (Scirpus juncoides [1]) [%]	Herbicidal rate (%) Lindernia pyxidaria [2] [%]	Herbicidal rate (%) Monochoria vaginalis [2] [%]	Herbicidal rate (%) Echinochloa crus-galli (Echinochloa crus-galli [3]) [%]	Herbicidal rate (%) Scirpus juncoides (Scirpus juncoides [4]; [7]) [%]	Herbicidal rate (%) Lindernia pyxidaria [5, 8] [%]	Herbicidal rate (%) Monochoria vaginalis [5, 9] [%]	Herbicidal rate (%) Echinochloa crus-galli (Echinochloa crus-galli [6]; [7]) [%]	herbicidal rate, Scirpus juncoides (Scirpus juncoides [1]) [%]	herbicidal rate, Lindernia pyxidaria [2] [%]	herbicidal rate, Monochoria vaginalis [2] [%]	herbicidal rate, Echinochloa crus-galli (Echinochloa crus-galli [3]) [%]	Herbicidal rate (%) Scirpus juncoides (Scirpus juncoides [4]; [10]) [%]	Herbicidal rate (%) Lindernia pyxidaria [5, 11] [%]	Herbicidal rate (%) Monochoria vaginalis [5, 12] [%]	Herbicidal rate (%) Echinochloa crus-galli (Echinochloa crus-galli [6]; [10]) [%]
CSCCCn1oc(=O)c(Cc2ccccc2NS(=O)(=O)C(F)(F)F)c1C [Compound 1-167]	90	90	90	90	90	90	80	100								
CCCCCCCCn1oc(=O)c(Cc2ccccc2N(S(=O)(=O)C(F)(F)F)S(=O)(=O)C(F)(F)F)c1C [Compound 1-981]	40	50	40	90	70	60	50	80								
Cc1c(Cc2ccccc2NS(=O)(=O)C(F)(F)F)c(=O)on1C(C)c1ccc(Cl)cc1 (stereo not drawn) [Compound 1-207]	70	60	70	60	90	100	100	100								
Cc1c(Cc2ccccc2N(C(=O)OCC(C)C)S(=O)(=O)C(F)(F)F)c(=O)on1CC(C)C [Compound 1-671]	90	60	90	90	90	90	90	90								
Cc1c(Cc2ccccc2N(S(=O)(=O)C(F)(F)F)S(=O)(=O)C(F)(F)F)c(=O)on1Cc1cccs1 [Compound 1-1054]									90	100	100	90	90	100	100	90
Cc1c(Cc2ccccc2NS(=O)(=O)C(F)(F)F)c(=O)on1Cc1cccs1 [Compound 1-231]	60	40	40	60	80	80	90	90								
C#CCn1oc(=O)c(Cc2ccccc2N(S(=O)(=O)C(F)(F)F)S(=O)(=O)C(F)(F)F)c1C [Compound 1-988]	90	100	100	90	90	100	100	90								
Cc1c(Cc2ccccc2N(S(=O)(=O)C(F)(F)F)S(=O)(=O)C(F)(F)F)c(=O)on1Cc1ccc(Cl)cc1 [Compound 1-1015]	90	90	90	70	90	100	90	90								
Cc1c(Cc2ccccc2NS(=O)(=O)C(F)(F)F)c(=O)on1C(C)c1ccc(F)cc1 (stereo not drawn) [Compound 1-204]	80	80	80	80	90	90	90	100								
Cc1c(Cc2ccccc2N(S(=O)(=O)C(F)(F)F)S(=O)(=O)C(F)(F)F)c(=O)on1Cc1ccc(C#N)cc1 [Compound 1-1017]	80	80	80	0	90	60	90	40								
Cc1c(Cc2ccccc2NS(=O)(=O)C(F)(F)F)c(=O)on1Cc1ccc(C(F)(F)F)cc1 [Compound 1-194]	60	60	60	40	80	100	80	80								
CCN(CC)C(=O)n1oc(=O)c(Cc2ccccc2N(C(=O)OCC(C)C)S(=O)(=O)C(F)(F)F)c1C [Compound 1-679]	40	40	40	50	50	50	50	60								
Cc1c(Cc2ccccc2N(S(=O)(=O)C(F)(F)F)S(=O)(=O)C(F)(F)F)c(=O)on1CCOCc1ccccc1 [Compound 1-1059]									70	40	70	90	80	80	90	100
CCOC(=O)N(c1ccccc1Cc1c(C)n(CC(C)C)oc1=O)S(=O)(=O)C(F)(F)F [Compound 1-608]	80	60	80	90	90	70	80	70								
Cc1c(Cc2c(Cl)cccc2N(S(=O)(=O)C(F)(F)F)S(=O)(=O)C(F)(F)F)c(=O)on1C(C)C [Compound 1-47]	70	40	40	40	80	70	70	40								
